Measured values taken from patent US4704464A, “Tumor retarding (1-benzyl-ethylenediamine)-platin (II)-complexes” (ASTA-Werke Aktiengesellschaft Chemische Fabrik, priority 1985, dated 1987).

Assay: solubility
Type: physicochemical
Conditions: Example 37 complexes

water solubility: good water solubility
Substance: D,L-dibenzenesulfonate-(1-benzylethylenediamine)-platinum II [dibenzenesulfonate complexes]
